Data as given in ChEMBL document CHEMBL3112480, “γ-Alkylidene-γ-lactones and isobutylpyrrol-2(5H)-ones analogues to rubrolides as inhibitors of biofilm formation by gram-positive and gram-negative bacteria” (Bioorg Med Chem Lett, 2014).
Values after ≈ are worked out from the molar mass of the structure shown.

Columns and labels:
Staphylococcus aureus [1] = assay: Antibacterial activity against Staphylococcus aureus ATCC 25923 assessed as effect on planktonic growth at 0.17 ug/ml after 20 hrs relative to control; assay type: functional
Pseudomonas aeruginosa [2] = assay: Antibacterial activity against Pseudomonas aeruginosa ATCC 27853 assessed as effect on planktonic growth at 10.9 ug/ml after 20 hrs relative to control; assay type: functional
Pseudomonas aeruginosa [3] = assay: Antibacterial activity against Pseudomonas aeruginosa ATCC 27853 assessed as effect on planktonic growth at 43.8 ug/ml after 20 hrs relative to control; assay type: functional
[4] = test system: Staphylococcus epidermidis; assay: Antibacterial activity against Staphylococcus epidermidis ATCC 35547 assessed as inhibition of biofilm formation after 20 hrs by crystal-violet staining method; assay type: functional, organism-based
Pseudomonas aeruginosa [5] = assay: Antibacterial activity against Pseudomonas aeruginosa ATCC 27853 assessed as effect on planktonic growth at 0.68 ug/ml after 20 hrs relative to control; assay type: functional
Staphylococcus aureus [6] = assay: Antibacterial activity against Staphylococcus aureus ATCC 25923 assessed as effect on planktonic growth at 87.5 ug/ml after 20 hrs relative to control; assay type: functional
[7] = test system: Staphylococcus epidermidis; assay: Antibacterial activity against Staphylococcus epidermidis ATCC 35547 assessed as effect on planktonic growth at 87.5 ug/ml after 20 hrs relative to control; assay type: functional
Staphylococcus aureus [8] = assay: Antibacterial activity against Staphylococcus aureus ATCC 25923 assessed as effect on planktonic growth at 0.68 ug/ml after 20 hrs relative to control; assay type: functional
Pseudomonas aeruginosa [9] = assay: Antibacterial activity against Pseudomonas aeruginosa ATCC 27853 assessed as effect on planktonic growth at 1.37 ug/ml after 20 hrs relative to control; assay type: functional
Streptococcus mutans [10] = assay: Antibacterial activity against Streptococcus mutans ATCC 25175 assessed as effect on planktonic growth at 10.9 ug/ml after 20 hrs relative to control; assay type: functional
Pseudomonas aeruginosa [11] = assay: Antibacterial activity against Pseudomonas aeruginosa ATCC 27853 assessed as effect on planktonic growth at 87.5 ug/ml after 20 hrs relative to control; assay type: functional
Pseudomonas aeruginosa [12] = assay: Antibacterial activity against Pseudomonas aeruginosa ATCC 27853 assessed as effect on planktonic growth at 5.5 ug/ml after 20 hrs relative to control; assay type: functional
Staphylococcus aureus [13] = assay: Antibacterial activity against Staphylococcus aureus ATCC 25923 assessed as effect on planktonic growth at 0.34 ug/ml after 20 hrs relative to control; assay type: functional
Staphylococcus aureus [14] = assay: Antibacterial activity against Staphylococcus aureus ATCC 25923 assessed as effect on planktonic growth at 21.9 ug/ml after 20 hrs relative to control; assay type: functional
Streptococcus mutans [15] = assay: Antibacterial activity against Streptococcus mutans ATCC 25175 assessed as effect on planktonic growth at 5.5 ug/ml after 20 hrs relative to control; assay type: functional
[16] = test system: Staphylococcus epidermidis; assay: Antibacterial activity against Staphylococcus epidermidis ATCC 35547 assessed as effect on planktonic growth at 1.37 ug/ml after 20 hrs relative to control; assay type: functional
Staphylococcus aureus [17] = assay: Antibacterial activity against Staphylococcus aureus ATCC 25923 assessed as effect on planktonic growth at 5.5 ug/ml after 20 hrs relative to control; assay type: functional
Pseudomonas aeruginosa [18] = assay: Antibacterial activity against Pseudomonas aeruginosa ATCC 27853 assessed as effect on planktonic growth at 0.17 ug/ml after 20 hrs relative to control; assay type: functional
Streptococcus mutans [19] = assay: Antibacterial activity against Streptococcus mutans ATCC 25175 assessed as effect on planktonic growth at 1.37 ug/ml after 20 hrs relative to control; assay type: functional
Streptococcus mutans [20] = assay: Antibacterial activity against Streptococcus mutans ATCC 25175 assessed as effect on planktonic growth at 21.9 ug/ml after 20 hrs relative to control; assay type: functional
Staphylococcus aureus [21] = assay: Antibacterial activity against Staphylococcus aureus ATCC 25923 assessed as effect on planktonic growth at 1.37 ug/ml after 20 hrs relative to control; assay type: functional
[22] = test system: Staphylococcus epidermidis; assay: Antibacterial activity against Staphylococcus epidermidis ATCC 35547 assessed as effect on planktonic growth at 0.68 ug/ml after 20 hrs relative to control; assay type: functional
Staphylococcus aureus [23] = assay: Antibacterial activity against Staphylococcus aureus ATCC 25923 assessed as effect on planktonic growth at 43.8 ug/ml after 20 hrs relative to control; assay type: functional
[24] = test system: Staphylococcus epidermidis; assay: Antibacterial activity against Staphylococcus epidermidis ATCC 35547 assessed as effect on planktonic growth at 5.5 ug/ml after 20 hrs relative to control; assay type: functional
Streptococcus mutans [25] = assay: Antibacterial activity against Streptococcus mutans ATCC 25175 assessed as effect on planktonic growth at 2.73 ug/ml after 20 hrs relative to control; assay type: functional
Pseudomonas aeruginosa [26] = assay: Antibacterial activity against Pseudomonas aeruginosa ATCC 27853 assessed as effect on planktonic growth at 21.9 ug/ml after 20 hrs relative to control; assay type: functional
[27] = test system: Staphylococcus epidermidis; assay: Antibacterial activity against Staphylococcus epidermidis ATCC 35547 assessed as effect on planktonic growth at 2.73 ug/ml after 20 hrs relative to control; assay type: functional
[28] = test system: Staphylococcus epidermidis; assay: Induction of biofilm formation in Staphylococcus epidermidis ATCC 35547 at 87.5 ug/ml after 20 hrs by crystal-violet staining method relative to control; assay type: organism-based
Streptococcus mutans [29] = assay: Antibacterial activity against Streptococcus mutans ATCC 25175 assessed as effect on planktonic growth at 0.17 ug/ml after 20 hrs relative to control; assay type: functional
[30] = test system: Staphylococcus epidermidis; assay: Antibacterial activity against Staphylococcus epidermidis ATCC 35547 assessed as effect on planktonic growth at 0.34 ug/ml after 20 hrs relative to control; assay type: functional
Pseudomonas aeruginosa [31] = assay: Antibacterial activity against Pseudomonas aeruginosa ATCC 27853 assessed as effect on planktonic growth at 2.73 ug/ml after 20 hrs relative to control; assay type: functional
Staphylococcus aureus [32] = assay: Antibacterial activity against Staphylococcus aureus ATCC 25923 assessed as effect on planktonic growth at 10.9 ug/ml after 20 hrs relative to control; assay type: functional
[33] = test system: Staphylococcus epidermidis; assay: Antibacterial activity against Staphylococcus epidermidis ATCC 35547 assessed as effect on planktonic growth at 43.8 ug/ml after 20 hrs relative to control; assay type: functional
Streptococcus mutans [34] = assay: Antibacterial activity against Streptococcus mutans ATCC 25175 assessed as effect on planktonic growth at 43.8 ug/ml after 20 hrs relative to control; assay type: functional
Pseudomonas aeruginosa [35] = assay: Antibacterial activity against Pseudomonas aeruginosa ATCC 27853 assessed as effect on planktonic growth at 0.34 ug/ml after 20 hrs relative to control; assay type: functional
[36] = test system: Staphylococcus epidermidis; assay: Antibacterial activity against Staphylococcus epidermidis ATCC 35547 assessed as effect on planktonic growth at 21.9 ug/ml after 20 hrs relative to control; assay type: functional
Streptococcus mutans [37] = assay: Antibacterial activity against Streptococcus mutans ATCC 25175 assessed as effect on planktonic growth at 0.34 ug/ml after 20 hrs relative to control; assay type: functional
[38] = test system: Staphylococcus epidermidis; assay: Antibacterial activity against Staphylococcus epidermidis ATCC 35547 assessed as effect on planktonic growth at 10.9 ug/ml after 20 hrs relative to control; assay type: functional
Staphylococcus aureus [39] = assay: Antibacterial activity against Staphylococcus aureus ATCC 25923 assessed as effect on planktonic growth at 2.73 ug/ml after 20 hrs relative to control; assay type: functional
[40] = test system: Staphylococcus epidermidis; assay: Antibacterial activity against Staphylococcus epidermidis ATCC 35547 assessed as effect on planktonic growth at 0.17 ug/ml after 20 hrs relative to control; assay type: functional
Streptococcus mutans [41] = assay: Antibacterial activity against Streptococcus mutans ATCC 25175 assessed as effect on planktonic growth at 87.5 ug/ml after 20 hrs relative to control; assay type: functional
Pseudomonas aeruginosa [42] = assay: Antibacterial activity against Pseudomonas aeruginosa ATCC 27853 assessed as inhibition of biofilm formation after 20 hrs by crystal-violet staining method; assay type: functional, organism-based; conditions: for IC50: ATCC 27853, 20 h
Streptococcus mutans [43] = assay: Antibacterial activity against Streptococcus mutans ATCC 25175 assessed as effect on planktonic growth at 0.68 ug/ml after 20 hrs relative to control; assay type: functional
Streptococcus mutans [44] = assay: Antibacterial activity against Streptococcus mutans ATCC 25175 assessed as inhibition of biofilm formation at 44 ug/ml after 20 hrs by crystal-violet staining method relative to control; assay type: functional; conditions: ATCC 25175, 20 h

COc1ccccc1C1=C(Br)C(=O)N(CC(C)C)C1(O)Cc1ccc(C(F)(F)F)cc1 (centres undefined)
Activity (Staphylococcus aureus [1]): -4.8%
Activity (Pseudomonas aeruginosa [2]): -16.2%
Activity (Pseudomonas aeruginosa [3]): -7.8%
inhibition [4]: Dose-dependent effect
Activity (Pseudomonas aeruginosa [5]): -6.5%
Activity (Staphylococcus aureus [6]): -15.4%
Activity [7]: 0.5%
Activity (Staphylococcus aureus [8]): -5.6%
Activity (Pseudomonas aeruginosa [9]): -19.3%
Activity (Streptococcus mutans [10]): -23.9%
Activity (Pseudomonas aeruginosa [11]): -10.8%
Activity (Pseudomonas aeruginosa [12]): -17.2%
Activity (Staphylococcus aureus [13]): -2.8%
Activity (Staphylococcus aureus [14]): -17%
Activity (Streptococcus mutans [15]): -18.7%
Activity [16]: 0.1%
Activity (Staphylococcus aureus [17]): -4.1%
Activity (Pseudomonas aeruginosa [18]): 4.7%
Activity (Streptococcus mutans [19]): 12.4%
Activity (Streptococcus mutans [20]): -26.9%
Activity (Staphylococcus aureus [21]): 2.5%
Activity [22]: 1.4%
Activity (Staphylococcus aureus [23]): -17%
Activity [24]: 10.7%
Activity (Streptococcus mutans [25]): 1.7%
Activity (Pseudomonas aeruginosa [26]): -12.2%
Activity [27]: 3.5%
Activity [28]: 143.6%
Activity (Streptococcus mutans [29]): 0.7%
Activity [30]: 1.9%
Activity (Pseudomonas aeruginosa [31]): -18.4%
Activity (Staphylococcus aureus [32]): -5.8%
Activity [33]: 16.3%
Activity (Streptococcus mutans [34]): -29.9%
Activity (Pseudomonas aeruginosa [35]): 3.7%
Activity [36]: 13.8%
Activity (Streptococcus mutans [37]): 6.2%
Activity [38]: 16.4%
Activity (Staphylococcus aureus [39]): 0.5%
Activity [40]: 6.3%
Activity (Streptococcus mutans [41]): -36.3%
inhibition (Pseudomonas aeruginosa [42]): Dose-dependent effect
IC50 (Pseudomonas aeruginosa [42]): > 87.5 µg/mL
Activity (Streptococcus mutans [43]): 10.9%

COc1ccc(C)cc1C1=C(Br)C(=O)N(CC(C)C)/C1=C\c1cccc(Cl)c1
Activity (Staphylococcus aureus [1]): 10.8%
Activity (Pseudomonas aeruginosa [2]): 13.5%
Activity (Pseudomonas aeruginosa [3]): 25.6%
inhibition [4]: Dose-dependent effect
IC50 ([4]; ATCC 35547, 20 h): 67.4 µg/mL (≈ 146 µM)
Activity (Pseudomonas aeruginosa [5]): 0.8%
Activity (Staphylococcus aureus [6]): 4.8%
Activity [7]: -12.6%
Activity (Staphylococcus aureus [8]): 9.2%
Activity (Pseudomonas aeruginosa [9]): 0%
Activity (Streptococcus mutans [10]): -32.3%
Activity (Pseudomonas aeruginosa [11]): 35.3%
Activity (Pseudomonas aeruginosa [12]): 8.8%
Activity (Staphylococcus aureus [13]): 11.8%
Activity (Staphylococcus aureus [14]): 4%
Activity (Streptococcus mutans [15]): -26.3%
Activity [16]: 6.4%
Activity (Staphylococcus aureus [17]): 18.4%
Activity (Pseudomonas aeruginosa [18]): 0.9%
Activity (Streptococcus mutans [19]): -14.9%
Activity (Streptococcus mutans [20]): -33.6%
Activity (Staphylococcus aureus [21]): 12%
Activity [22]: -4.2%
Activity (Staphylococcus aureus [23]): 6.6%
Activity [24]: 1.1%
Activity (Streptococcus mutans [25]): -18.8%
Activity (Pseudomonas aeruginosa [26]): 21.3%
Activity [27]: 11.4%
Activity (Streptococcus mutans [29]): -4.4%
Activity [30]: 2.4%
Activity (Pseudomonas aeruginosa [31]): 3%
Activity (Staphylococcus aureus [32]): 13.2%
Activity [33]: -38.8%
inhibition at 44 µg/mL (Streptococcus mutans [44]): 34%
Activity (Streptococcus mutans [34]): -42.5%
Activity (Pseudomonas aeruginosa [35]): 0.8%
Activity [36]: -38.6%
Activity (Streptococcus mutans [37]): -4.1%
Activity [38]: -19.8%
Activity (Staphylococcus aureus [39]): 12.6%
Activity [40]: 5.6%
Activity (Streptococcus mutans [41]): -46.7%
inhibition (Pseudomonas aeruginosa [42]): Dose-dependent effect
IC50 (Pseudomonas aeruginosa [42]): 0.6 µg/mL (≈ 1.3 µM)
Activity (Streptococcus mutans [43]): -6%
